Literature values in US9333159B2, “Topical DNA repair composition” (PHOTOMEDEX, INC., priority 2011, dated 2016).

Conditions: known super antioxidants; USDA database value prevails where different

C[N+](C)(C)[C@@H](Cc1c[nH]c(=S)[nH]1)C(=O)[O-] [ergothioneine]
ORAC score: 61,000
